From patent publication US20130280391A1, “ANTI-MICROBIAL WASH COMPOSITIONS INCLUDING CERAGENIN COMPOUNDS AND METHODS OF USE FOR TREATING NON-MEAT FOOD PRODUCTS” (BRIGHAM YOUNG UNIVERSITY, priority 2012, published 2013)

Columns and labels:
Campylobacter bacteria = test: Example 3: killing of Campylobacter inoculated on food product samples by dip in wash composition; format: cell-based; conditions: 30 second dip; for log reduction of Campylobacter: versus positive control
Procedure: (§1) Example 2 was performed to determine the effectiveness of an anti-microbial wash composition including a ceragenin compound in controlling growth of Salmonella bacteria by fighting off a Salmonella inoculation. Example 3 was similarly performed to determine the effectiveness of the wash composition in controlling growth of Campylobacter bacteria by fighting off a Campylobacter inoculation. Examples 2 and 3 simulate the effectiveness of the present anti-microbial wash compositions to kill Salmonella and Campylobacter on a food product where the food product has become contaminated with Salmonella bacteria or Campylobacter bacteria.
(§2) A total of 15 food product samples were used for these tests. The 15 samples were divided into five groups of three each. Three samples were left untreated to serve as a negative control in order to observe natural levels of bacteria present on the samples. The remaining 12 samples were then inoculated with 1 mL of Salmonella and 1 mL of Campylobacter. The samples were allowed to dry for 20 minutes in order for the bacteria to adhere to the surface of the food product samples. One group of three of the inoculated samples, designated the positive control, were then rinsed with a wash composition including no anti-microbial agent to determine the level of bacteria after inoculation.
(§3) Each sample was withdrawn after 30 seconds. […] Each sample was withdrawn after 30 seconds. The fifth group of three inoculated samples was dipped one by one into a comparative proprietary non-CSA wash composition. Each of the samples was then rinsed, and the rinsate was collected to determine the levels and types of bacteria from each group. […] In other words, there were no changes to color, texture, taste, or smell, as a result of application of the ceragenin wash compositions.
In other words, the treatment was effective in killing 93.7% of the Campylobacter bacteria. […] In other words, the treatment was effective in killing 80% of the Campylobacter bacteria.

Salmonella bacteria = test: Example 2: killing of Salmonella inoculated on food product samples by dip in wash composition; format: cell-based; conditions: 30 second dip; for level of Salmonella bacteria in the rinsate: positive control nearly 10^3.5 CFUs/mL
Procedure: as §1, §2, §3
In other words, the wash composition including 500 ppm ceragenin compound killed 100% of Salmonella bacteria present.

[1] = 1000 ppm by weight aqueous wash

CCCCCCCCOC(=O)CC[C@@H](C)[C@H]1CC[C@H]2[C@@H]3[C@H](OC(=O)CCN)C[C@@H]4C[C@H](OC(=O)CCN)CC[C@]4(C)[C@H]3C[C@H](OC(=O)CCN)[C@]12C [CSA-44]
Campylobacter bacteria killed (Campylobacter bacteria; 500 ppm by weight aqueous wash): 93.7%
log reduction of Campylobacter (Campylobacter bacteria; 500 ppm by weight aqueous wash): 1.2 log
Campylobacter bacteria killed (Campylobacter bacteria; [1]): 80%
log reduction of Campylobacter (Campylobacter bacteria; [1]): 0.8 log
Salmonella bacteria killed (Salmonella bacteria; 500 ppm by weight aqueous wash): 100%
level of Salmonella bacteria in the rinsate (Salmonella bacteria; 500 ppm by weight aqueous wash): no detectable level of Salmonella bacteria
level of Salmonella bacteria in the rinsate (Salmonella bacteria; [1]): no detectable level of Salmonella bacteria
